Results published in patent US4788188A, “Quinolylglycinamide derivatives, the process for preparation thereof and their therapeutic application as psychotropic drugs” (Sanofi (S.A.), priority 1985, dated 1988).
Like-named read-outs stand apart in the source and are kept apart here.

What was measured:
benzodiazepine receptors = test: Affinity for benzodiazepine receptors: inhibition of specific binding of [3H]flunitrazepam (WASTEK et al., modified); parameters: species or system rats; conditions: 50% inhibition of specific binding of [3H]flunitrazepam, rat brain membranes
Procedure: This study was performed according to the technique of WASTEK et al., (Europ. J. Pharmacol., 1978, 50, 445-447) slightly modified.
Rats are sacrificed by decapitation, and the brain is removed, ground, suspended, centrifuged and resuspended.
Samples of this suspension are incubated in the presence of [^3 H]flunitrazepam, alone or in the presence of increasing concentrations of the test compound.
The radioactivity bound on the membranes is then determined by liquid scintillation.
The concentration of product which 50% inhibits the specific binding of [^3 H]flunitrazepam (IC50) is thereby determined.

food neophobia = test: Anxiolytic activity: food neophobia test; type: in vivo, mice; conditions: 30 minutes after treatment
Procedure: This activity was studied by the food neophobia test. In effect, a pronounced inhibition of the feed intake can be obtained in mice when both the food and the enclosure are unfamiliar to the aninal (R. J. STEPHENS, Brit. J. Pharmacol., 1973, 47, 145 P). All anxiolytics specifically counteract neophobia phenomena.
30 minutes after oral or subcutaneous treatment with the test derivatives and the reference products, the mice, fasted for 16 to 20 hours, are isolated in a translucent enclosure and placed in the presence of an unfamiliar food for 5 minutes.
The amounts consumed are evaluated in proportion to the weight of the animal.
In each batch, the mean consumption and also the percentage variation relative to the control batch are calculated in this manner.

pentetrazole seizures = test: Anticonvulsant activity: protection against pentetrazole seizures (EVERETT and RICHARDS); type: in vivo, mice; conditions: Mus musculus, po, 0.5 h, pentetrazole 125 mg/kg subcutaneously, no tonic seizures during 30 minutes, 95% confidence limits (FINNEY), read-out: ED50 (Confidence interval)
Procedure: The protective effect produced by the compound of the inventon against pentetrazole seizures was studied.
This test was carried out according to the method of EVERETT and RICHARDS (J. Pharm. Exp. Ther., 1944, 81, 402-407). The test products and reference products were administered orally (suspended in gum arabic) to batches of 10 mice, 30 minutes […] pentetrazole (125 mg/kg subcutaneously).

[1] = Acute toxicity in mice (oral); conditions: mouse, in vivo, oral administration
Text: The acute, chronic, sub-chronic and delayed toxicities were dealt with in this study. Performed on various animal species, the trials brought out the low toxicity and good tolerability of the derivatives of the invention.

[2] = Hypnotic activity (method of JANSEN); type: in vivo, mice; conditions: 95% confidence interval (FINNEY); for ED50: Mus musculus, ip, read-out: 50% hypnotic dose (confidence interval)
Procedure: The hypnotic activity of the compounds of the present invention was assessed by the method of JANSEN (J. Med. Pharm. Chem., 1959, 1, 281).
After treatment i.p., each mouse is carefully placed on its back. […] In each batch (10 mice per dose), the percentage of sleeping animals is noted. The 50% hypnotic dose and its 95% confidence interval were calculated according to FINNEY's (1971) method.

[3] = Hypnotic activity (method of JANSEN); type: in vivo, mice; conditions: 95% confidence interval (FINNEY); for ED50: Mus musculus, iv, read-out: 50% hypnotic dose (confidence interval); for 50% hypnotic dose (confidence interval): i.v.
[4] = comparison, L. PIERI et al., Arzneim. Forsch., 1981; route not given; cited from earlier work

Row | Compound | IC50 (benzodiazepine receptors) [nM] | ED50 (pentetrazole seizures) [mg/kg] | ED50 [2] [mg/kg] | ED50 [3] [mg/kg] | other results
1 | CCCN(CCC)C(=O)CNc1c(C(=O)OCC)cnc2ccc(Br)cc12 [Derivative 17, 2-(3-Ethoxycarbonyl-6-bromo-4-quinolyl)amino-N,N-dipropylacetamide] | 8 | 18 |  |  | Percentage increase (food consumption relative to control batch) (food neophobia; dose 32 mg/kg, SC): 75%
2 | CCCN(CCC)C(=O)CNc1c(C(=O)OCC)cnc2ccc(C)cc12.Cl [Derivative 13, 2-(3-Ethoxycarbonyl-6-methyl-4-quinolyl)amino-N,N-dipropylacetamide hydrochloride] | 25 | 25 |  |  | Percentage increase (food consumption relative to control batch) (food neophobia; dose 16 mg/kg, PO): 75%
3 | CCOC(=O)c1cnc2ccc(OC)cc2c1NCC(=O)N(CC)CC [Derivative 3, 2-(3-Ethoxycarbonyl-6-methoxy-4-quinolyl)amino-N,N-diethylacetamide] | 55 |  | 27 | 7 | LD50 [1]: 1650 mg/kg
4 | CCCN(CCC)C(=O)CN(C)c1c(C(=O)OCC)cnc2ccc(Cl)cc12 [Derivative 59, [N'-(3-Ethoxycarbonyl-6-chloro-4-quinolyl)-N'-methylamino]-N,N-dipropylacetamide] |  | 16 |  |  | Percentage increase (food consumption relative to control batch) (food neophobia; dose 32 mg/kg, PO): 146%
5 | CCCN(CCC)C(=O)CNc1c(C(=O)OCC)cnc2ccc(Cl)cc12 [Derivative 12, 2-(3-Ethoxycarbonyl-6-chloro-4-quinolyl)amino-N,N-dipropylacetamide] | 16 | 10 |  |  | Percentage increase (food consumption relative to control batch) (food neophobia; dose 32 mg/kg, PO): 75%
6 | CCCN(CCC)C(=O)CNc1c(C(=O)OCC)cnc2ccc(OC)cc12 [Derivative 14, 2-(3-Ethoxycarbonyl-6-methoxy-4-quinolyl)amino-N,N-dipropylacetamide] | 17 | 40 | 25 | 5 | 
7 | CN1C(=O)CN=C(c2ccccc2)c2cc(Cl)ccc21 [Diazepam, diazepam, reference compound] | 10 |  |  |  | Percentage increase (food consumption relative to control batch) (food neophobia; dose 4 mg/kg, PO): 80%
8 | CCCN(CCC)C(=O)CNc1c(C(=O)OCC)cnc2ccc(Cl)cc12 [12 (Phosphate)] |  |  | 38 |  | 50% hypnotic dose (confidence interval) [3]: 2 (1-4) mg/kg
9 | CCOC(=O)c1cnc2ccc(Cl)cc2c1NCC(=O)N(CC)CC [Derivative 1, 2-(3-Ethoxycarbonyl-6-chloro-4-quinolyl)amino-N,N-diethylacetamide] | 85 | 49 |  |  | LD50 [1]: 1800 mg/kg
10 | CCOC(=O)c1cnc2ccc(C(F)(F)F)cc2c1NCC(=O)N(CC)CC [Derivative 4, 2-(3-Ethoxycarbonyl-6-trifluoromethyl-4-quinolyl)amino-N,N-diethylacetamide] | 97 |  | 27 | 5 | 
11 | CCOC(=O)c1cnc2ccc([N+](=O)[O-])cc2c1NCC(=O)N(CC)CC [Derivative 5, 2-(3-Ethoxycarbonyl-6-nitro-4-quinolyl)amino-N,N-diethylacetamide] | 97 | 50 | 25 | 9 | 
12 | CCOC(=O)c1cnc2ccc(Cl)cc2c1N(C)CC(=O)N(CC)CC [Derivative 58, [N'-(3-Ethoxycarbonyl-6-chloro-4-quinolyl)-N'-methylamino]-N,N-diethylacetamide] |  | 44 |  |  | Percentage increase (food consumption relative to control batch) (food neophobia; dose 64 mg/kg, SC): 80%
13 | CCCC(C)C1(CC)C(=O)NC(=S)NC1=O (centres unmarked) [thiopental sodium] |  |  |  |  | 50% hypnotic dose [4]: 17 mg/kg
14 | CCN(CC)C(=O)CNc1c(C(=O)O)cnc2ccc(C)cc12 [Derivative 44, 2-(3-Carboxy-6-methyl-4-quinolyl)amino-N,N-diethylacetamide] | 46 |  |  |  | Percentage increase (food consumption relative to control batch) (food neophobia; dose 32 mg/kg, SC): 50%
15 | CCCC(C)(COC(N)=O)COC(N)=O [Meprobamate, reference compound] |  | 36 |  |  | Percentage increase (food consumption relative to control batch) (food neophobia; dose 60 mg/kg, PO): 95%
16 | CCOC(=O)c1cnc2ccc(OCC)cc2c1NCC(=O)N1CCCCC1 [Derivative 33, 1-{2-[(3-Ethoxycarbonyl-6-ethoxy-4-quinolyl)amino]acetyl}piperidine] | 54 |  | 15 | 5 | 
17 | CNC1=Nc2ccc(Cl)cc2C(c2ccccc2)=[N+]([O-])C1 [Chlordiazepoxide, chlordiazepoxide, reference compound] | 950 | 7 |  |  | Percentage increase (food consumption relative to control batch) (food neophobia; dose 16 mg/kg, PO): 73%
18 | CCCN(CCC)C(=O)CNc1c(C(=O)OCC)cnc2ccc(Cl)cc12 [12 (Sulphate)] |  |  |  |  | 50% hypnotic dose (confidence interval) ([2]; i.p.): 30 (14-39) mg/kg; 50% hypnotic dose (confidence interval) [3]: 6 (4-15) mg/kg
19 | Cc1ncc2n1-c1ccc(Cl)cc1C(c1ccccc1F)=NC2 [midazolam] |  |  |  |  | 50% hypnotic dose [4]: 23 mg/kg
20 | CCOC(=O)c1cnc2ccc(OCC)cc2c1NCC(=O)N(CC)CC [Derivative 8] | 133 |  | 18 | 5 | 
21 | CCN(CC)C(=O)CNc1c(C(=O)O)cnc2ccc(Cl)cc12 [Derivative 43, 2-(3-Carboxy-6-chloro-4-quinolyl)amino-N,N-diethylacetamide] | 7 |  |  |  | Percentage increase (food consumption relative to control batch) (food neophobia; dose 64 mg/kg, SC): 75%; LD50 [1]: 2200 mg/kg
22 | CCOC(=O)c1cnc2ccc(Cl)cc2c1NCC(=O)N1CCCC(C)C1 (centres unmarked) [Derivative 38, 1-{2-[(3-Ethoxycarbonyl-6-chloro-4-quinolyl)amino]acetyl}-3-methylpiperidine] | 65 | 46 | 28 | 9 | 
